Laboratory results reported in PMC6474387, “Salt-Tolerant Antifungal and Antibacterial Activities of the Corn Defensin ZmD32” (Frontiers in Microbiology, 2019).
Read-outs that look alike come from different tables or passages of the source.

What was measured:
C. tropicalis ATCC 750 = format: cell-based, Candida tropicalis; details: OD595, 24 h
[1] = test system: prostate cancer (PC3) cells; assay: MTT cell viability assay, PC3; details: 48 h, twofold dilution series from 50 μM down, three independent replicates
Experimental: (§2) Leukemia monocyte lymphoma (U937) cells and prostate cancer (PC3) cells were cultured in RPMI-1640 medium (Sigma) buffered to pH 7.2 with HEPES and supplemented with 5–10% (v/v) fetal calf serum (FCS), 100 U/mL penicillin (Sigma) and 100 μg/mL streptomycin (Invitrogen). […] All cell lines were cultured at 37°C in a humidified atmosphere containing 5% CO2. Cell viability assays were performed using an MTT assay as described in ([Poon et al., 2014]). […] IC50 values were determined using GraphPad Prism 5 (GraphPad Software, CA, United States).

[2] = Membrane lipid binding assay (protein-lipid overlay); details: detected with α-NaD2 (ZmD32) or α-NaD1 (NaD1) antibody; representative of three independent experiments
Experimental: Lipid binding assays were performed using Membrane Lipid Strips (Echelon Biosciences) as described in ([Poon et al., 2014]). ZmD32 binding to the lipids on the strips was detected using a polyclonal antibody generated in rabbits to the defensin NaD2 with which it shares 78.7% amino acid sequence identity ([Dracatos et al., 2014]). […] Lipid binding of NaD1 was performed as described in ([Poon et al., 2014]).

C. albicans ATCC 90028 = format: cell-based, Candida albicans
[3] = test system: E. coli, B. subtilis, S. aureus, and P. aeruginosa; format: cell-based; details: ½ PDB, pH 7; range over four bacteria
C. krusei = format: cell-based, Candida krusei; details: OD595, 24 h
C. auris = format: cell-based, Candida auris; details: OD595, 24 h
F. graminearum PH-1 = format: cell-based, Fusarium graminearum; details: ½ PDB, no added NaCl; 5 × 10^4 spores/mL; OD595, 24 h
E. coli [4] = format: cell-based, Escherichia coli; details: strain TOP10, OD595, 24 h
P. aeruginosa PAO1 = format: cell-based, Pseudomonas aeruginosa; details: ½ PDB adjusted to pH 7, no added NaCl; OD595, 24 h
C. parapsilosis = format: cell-based, Candida parapsilosis; details: OD595, 24 h
C. albicans biofilms = assay: Anti-biofilm assay, Presto Blue viability; format: cell-based, Candida albicans; details: 24 h biofilm, 24 h treatment at 37°C in RPMI (132.1 mM sodium), twofold dilution from 300 μg/mL
S. aureus ATCC 9144 = format: cell-based, Staphylococcus aureus; details: ½ PDB adjusted to pH 7, no added NaCl; OD595, 24 h
E. coli [5] = details: assays conducted in LB; ref van der Weerden et al., 2008; cited from earlier work
Text: (§1) The antibacterial activity of ZmD32 and NaD1 adds to a growing list of antibacterial defensins ([Sathoff and Samac, 2018]; [Sathoff et al., 2018]; [Velivelli et al., 2018]), a protein family that is best known for antifungal activity ([van der Weerden and Anderson, 2013]; [van der Weerden et al., 2013]; [Parisi et al., 2018]). The lack of reported antibacterial activity for plant defensins likely reflects the medium used for antibacterial assays, Here the ½ PDB pH 7 medium has a NaCl concentration of less than 10 mM. This concentration is considerably lower than growth media often used in anti ...

S. aureus = details: assays conducted in LB; ref van der Weerden et al., 2008; cited from earlier work
Text: as §1

C. glabrata ATCC 90030 = format: cell-based, Candida glabrata; details: OD595, 24 h
B. subtilis = format: cell-based, Bacillus subtilis; details: ½ PDB adjusted to pH 7, no added NaCl, OD595, 24 h
[6] = test system: Leukemia monocyte lymphoma (U937) cells; assay: MTT cell viability assay, U937; details: 48 h, twofold dilution series from 50 μM down, three independent replicates
Experimental: as §2

[7] = ½ PDB + 100 mM NaCl, read-out: NaCl IC50
[8] = ½ PDB, no added NaCl, read-out: IC50

Experimental for human red blood cells: Human blood was obtained from the Australian Red Cross Blood Service (Melbourne, VIC, Australia) under Material Supply Agreement 14-11VIC-03. Hemolytic activity of defensins was assessed as described in ([Evans et al., 2013]). The degree of red blood cell (RBC) lysis was measured by absorbance at 412 nm, relative to water-lysed RBCs.

Substance: NaD1: well-characterized antifungal plant defensin from Nicotiana alata floral tissues or recombinant from Pichia pastoris; used as standard (RECKTESNTFPGICITKPPCRKACISEKFTDGHCSKILRRCLCTKPC; UniProt Q8GTM0 26-72, looked up)
- IC50 (C. tropicalis ATCC 750; [7]): 1.3 ± 0.5 µM
- IC50 (C. tropicalis ATCC 750; [8]): 0.4 ± 0.1 µM
- Effect on viability of PC3 cells [1]: decreased viability of all three cell lines at much lower concentrations than ZmD32
- Lipids bound on membrane lipid strip [2]: bound preferentially to phosphatidylinositol-4,5-bisphosphate [PI(4,5)P2] but also bound to phosphatidic acid (PA) and cardiolipin
- Activity against C. albicans in the presence of divalent metal salts (C. albicans ATCC 90028; 5 mM MgCl2 or 2 mM CaCl2, data not shown): lost activity
- IC50 (C. albicans ATCC 90028; read-out: IC50): 1.6 ± 0.4 µM
- IC50 (C. albicans ATCC 90028; read-out: NaCl IC50): > 10 µM
- IC50 [3]: 2 to 5 µM
- IC50 (C. krusei; [7]): > 10 µM
- IC50 (C. krusei; [8]): 1.2 ± 0.4 µM
- IC50 (C. auris; [7]): > 10 µM
- IC50 (C. auris; [8]): 2.9 ± 0.5 µM
- IC50 (F. graminearum PH-1): 1 ± 0.5 µM
- IC50 (E. coli [4]; ½ PDB adjusted to pH 7 + 100 mM NaCl, read-out: NaCl IC50): > 10 µM
- IC50 (E. coli [4]; ½ PDB adjusted to pH 7, no added NaCl, read-out: IC50): 4.6 ± 1.6 µM
- IC50 (P. aeruginosa PAO1): 4.3 ± 0.3 µM
- Red blood cells lysed at concentrations up to 50 μM (human red blood cells): ≤ 2%
- IC50 (C. parapsilosis; [7]): 3.4 ± 1.2 µM
- IC50 (C. parapsilosis; [8]): 1.2 ± 0.3 µM
- Activity against established C. albicans biofilms (C. albicans biofilms): no activity
- IC50 (S. aureus ATCC 9144): 5 ± 0.5 µM
- Activity against E. coli (E. coli [5]): no activity
- Activity against S. aureus (S. aureus): no activity
- IC50 (C. glabrata ATCC 90030; [7]): > 10 µM
- IC50 (C. glabrata ATCC 90030; [8]): 2.8 ± 1 µM
- IC50 (B. subtilis): 2 ± 0.2 µM
- Effect on viability of U937 cells [6]: decreased viability of all three cell lines at much lower concentrations than ZmD32
